Values quoted from earlier work in patent US5756661A, “Pentaclethra macroloba derived substances having insecticide, agglutination and aminopeptidase inhibition activity” (Pioneer Hi-Bred International, Inc., priority 1996, dated 1998).

Test system: aminopeptidases
Conditions: references 13, 1

Row | SMILES | inhibition of the activity of several aminopeptidases
1 | CC(C)C[C@@H](N)[C@H](O)C(=O)N[C@H](C(=O)N[C@H](C(=O)N[C@@H](CC(=O)O)C(=O)O)C(C)C)C(C)C [amastatin] | completely inhibit
2 | CC(C)C[C@H](NC(=O)[C@@H](O)[C@H](N)Cc1ccccc1)C(=O)O [bestatin] | completely inhibit
